Data reported in ChEMBL document CHEMBL1201862, “PubChem BioAssay data set” (2004).
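A five-concentration, 48-hour dose response in 96-well plates underlies each endpoint, interpolated linearly between surrounding concentrations. At the GI50, growth is halved.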 Active and inactive are the calls of the source. Cut-off read from the data, not from the text of the source: active = GI50 up to about 1.1 µM and inactive = higher.

How the values were obtained:
Test in all cases: inhibition of tumour cell growth, NCI panel, 48 h
A498 = tested on: A498
NCI-H226 = tested on: NCI-H226
SF-539 = tested on: SF-539
Malme-3M = tested on: Malme-3M
OVCAR-5 = tested on: OVCAR-5
SK-MEL-5 = tested on: SK-MEL-5
HCC 2998 = tested on: HCC 2998
SNB-19 = tested on: SNB-19
NCI-H23 = tested on: NCI-H23
MDA-MB-435 = tested on: MDA-MB-435
U-251 = tested on: U-251
NCI-H460 = tested on: NCI-H460
PC-3 = tested on: PC-3
NCI-H522 = tested on: NCI-H522
T47D = tested on: T47D
NCI/ADR-RES = tested on: NCI/ADR-RES
EKVX = tested on: EKVX
UO-31 = tested on: UO-31
HT-29 = tested on: HT-29
BT-549 = tested on: BT-549
HOP-62 = tested on: HOP-62
SF-268 = tested on: SF-268
HCT-116 = tested on: HCT-116
RPMI-8226 = tested on: RPMI-8226
SR = tested on: SR
OVCAR-4 = tested on: OVCAR-4
Hs-578T = tested on: Hs-578T
OVCAR-8 = tested on: OVCAR-8
SF-295 = tested on: SF-295
CCRF-CEM = tested on: CCRF-CEM
LOX IMVI = tested on: LOX IMVI
SK-MEL-28 = tested on: SK-MEL-28
TK-10 = tested on: TK-10
K562 = tested on: K562
SK-MEL-2 = tested on: SK-MEL-2
HL-60 = tested on: HL-60
UACC-62 = tested on: UACC-62
A549 = tested on: A549
ACHN = tested on: ACHN
RXF 393 = tested on: RXF 393
OVCAR-3 = tested on: OVCAR-3
SW-620 = tested on: SW-620
HCT-15 = tested on: HCT-15
786-0 = tested on: 786-0
CAKI-1 = tested on: CAKI-1
MOLT-4 = tested on: MOLT-4
KM12 = tested on: KM12
IGROV-1 = tested on: IGROV-1
UACC-257 = tested on: UACC-257
MCF7 = tested on: MCF7
COLO 205 = tested on: COLO 205
HOP-92 = tested on: HOP-92
SNB-75 = tested on: SNB-75
SK-OV-3 = tested on: SK-OV-3

Question: `O=C(NN=C1NCCCCN1)Nc1ccc(Cl)cc1` was tested. Which GI50 (A498) did it give?
Answer: Its GI50 is > 100 µM (inactive).

Question: And the GI50 (NCI-H226)?
Answer: Its GI50 is 85.1 µM (inactive).

Question: What about the GI50 (SF-539) of the same molecule?
Answer: Its GI50 is > 100 µM (inactive).

Question: What about the GI50 (Malme-3M) of the same molecule?
Answer: Its GI50 is > 100 µM (inactive).

Question: What about the GI50 (OVCAR-5) of the same molecule?
Answer: Its GI50 is > 100 µM (inactive).

Question: And the GI50 (SK-MEL-5)?
Answer: Its GI50 is > 100 µM (inactive).

Question: What about the GI50 (HCC 2998) of the same molecule?
Answer: Its GI50 is > 100 µM (inactive).

Question: And the GI50 (SNB-19)?
Answer: The GI50 was > 100 µM (inactive).

Question: What about the GI50 (NCI-H23) of the same molecule?
Answer: Its GI50 is > 100 µM (inactive).

Question: What about the GI50 (MDA-MB-435) of the same molecule?
Answer: The GI50 was > 100 µM (inactive).

Question: And the GI50 (U-251)?
Answer: The GI50 was > 100 µM (inactive).

Question: And the GI50 (NCI-H460)?
Answer: Its GI50 is > 100 µM (inactive).

Question: What about the GI50 (PC-3) of the same molecule?
Answer: The GI50 was 73.5 µM (inactive).

Question: What about the GI50 (NCI-H522) of the same molecule?
Answer: Its GI50 is > 100 µM (inactive).

Question: What about the GI50 (T47D) of the same molecule?
Answer: Its GI50 is > 100 µM (inactive).

Question: And the GI50 (NCI/ADR-RES)?
Answer: Its GI50 is > 100 µM (inactive).

Question: And the GI50 (EKVX)?
Answer: The GI50 was > 100 µM (inactive).

Question: And the GI50 (UO-31)?
Answer: Its GI50 is > 100 µM (inactive).

Question: And the GI50 (HT-29)?
Answer: The GI50 was > 100 µM (inactive).

Question: And the GI50 (BT-549)?
Answer: Its GI50 is > 100 µM (inactive).

Question: And the GI50 (HOP-62)?
Answer: Its GI50 is > 100 µM (inactive).

Question: And the GI50 (SF-268)?
Answer: The GI50 was 93.1 µM (inactive).

Question: What about the GI50 (HCT-116) of the same molecule?
Answer: The GI50 was > 100 µM (inactive).

Question: And the GI50 (RPMI-8226)?
Answer: Its GI50 is 45.1 µM (inactive).

Question: What about the GI50 (SR) of the same molecule?
Answer: Its GI50 is 22.8 µM (inactive).

Question: And the GI50 (OVCAR-4)?
Answer: The GI50 was > 100 µM (inactive).

Question: And the GI50 (Hs-578T)?
Answer: The GI50 was > 100 µM (inactive).

Question: What about the GI50 (OVCAR-8) of the same molecule?
Answer: Its GI50 is > 100 µM (inactive).

Question: What about the GI50 (SF-295) of the same molecule?
Answer: The GI50 was > 100 µM (inactive).

Question: And the GI50 (CCRF-CEM)?
Answer: Its GI50 is 47.2 µM (inactive).

Question: And the GI50 (LOX IMVI)?
Answer: The GI50 was > 100 µM (inactive).

Question: What about the GI50 (SK-MEL-28) of the same molecule?
Answer: Its GI50 is > 100 µM (inactive).

Question: What about the GI50 (TK-10) of the same molecule?
Answer: The GI50 was > 100 µM (inactive).

Question: What about the GI50 (K562) of the same molecule?
Answer: The GI50 was 33 µM (inactive).

Question: What about the GI50 (SK-MEL-2) of the same molecule?
Answer: The GI50 was > 100 µM (inactive).

Question: What about the GI50 (HL-60) of the same molecule?
Answer: Its GI50 is 26.5 µM (inactive).

Question: What about the GI50 (UACC-62) of the same molecule?
Answer: The GI50 was > 100 µM (inactive).

Question: And the GI50 (A549)?
Answer: The GI50 was > 100 µM (inactive).

Question: What about the GI50 (ACHN) of the same molecule?
Answer: The GI50 was > 100 µM (inactive).

Question: And the GI50 (RXF 393)?
Answer: The GI50 was > 100 µM (inactive).

Question: And the GI50 (OVCAR-3)?
Answer: The GI50 was > 100 µM (inactive).

Question: What about the GI50 (SW-620) of the same molecule?
Answer: The GI50 was > 100 µM (inactive).

Question: What about the GI50 (HCT-15) of the same molecule?
Answer: Its GI50 is greater than 100 µM.

Question: And the GI50 (786-0)?
Answer: The GI50 was > 100 µM (inactive).

Question: And the GI50 (CAKI-1)?
Answer: The GI50 was > 100 µM (inactive).

Question: And the GI50 (MOLT-4)?
Answer: The GI50 was 23.9 µM (inactive).

Question: And the GI50 (KM12)?
Answer: The GI50 was > 100 µM (inactive).

Question: And the GI50 (IGROV-1)?
Answer: Its GI50 is > 100 µM (inactive).

Question: What about the GI50 (UACC-257) of the same molecule?
Answer: The GI50 was > 100 µM (inactive).

Question: What about the GI50 (MCF7) of the same molecule?
Answer: The GI50 was > 100 µM (inactive).

Question: And the GI50 (COLO 205)?
Answer: Its GI50 is > 100 µM (inactive).

Question: What about the GI50 (HOP-92) of the same molecule?
Answer: The GI50 was > 100 µM (inactive).

Question: And the GI50 (SNB-75)?
Answer: The GI50 was 31.6 µM (inactive).

Question: What about the GI50 (SK-OV-3) of the same molecule?
Answer: Its GI50 is > 100 µM (inactive).
